Results: PMC7912614, “(2-Aminobenzothiazole)-Methyl-1,1-Bisphosphonic Acids: Targeting Matrix Metalloproteinase 13 Inhibition to the Bone” (Pharmaceuticals, 2021)

Experiments:
MMP-2 = target: T1, MMP-2 (Homo sapiens, UniProt P08253); assay: fluorometric MMP inhibition assay, MMP-2 catalytic domain; assay type: biochemical; conditions: for Ligand Efficiency MMP-2: calculated from IC50 values of Table 2; for IC50: catalytic domain, fluorometric assay, mean ± SEM of at least 3 experiments; for selectivity toward MMP-8 (MMP-2 inhibition versus MMP-8): ratio IC50 MMP-8 / IC50 MMP-2
T1 construct: Catalytic domains of MMP-2, -8, -9, and -13 were obtained from Enzo Life Sciences; purchased Enzo Life Sciences
T1 sequence (P08253 110-446 limits assumed): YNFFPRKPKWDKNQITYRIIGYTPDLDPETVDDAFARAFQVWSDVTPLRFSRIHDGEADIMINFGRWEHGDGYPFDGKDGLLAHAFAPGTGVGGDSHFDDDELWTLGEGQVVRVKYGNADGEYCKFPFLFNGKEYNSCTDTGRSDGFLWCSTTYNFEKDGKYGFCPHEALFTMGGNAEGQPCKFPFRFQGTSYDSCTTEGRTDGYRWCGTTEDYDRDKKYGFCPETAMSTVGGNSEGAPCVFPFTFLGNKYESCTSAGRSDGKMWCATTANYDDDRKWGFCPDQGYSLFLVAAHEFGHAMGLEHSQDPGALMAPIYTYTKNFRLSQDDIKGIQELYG
Method: (§1) Catalytic domains of MMP-2, -8, -9, and -13 were obtained from Enzo Life Sciences. 96-well white microtiter plates (Corning, NBS) were used to carry out the assays (in triplicate). The assay measurements were performed by preparing dilutions to six different concentrations (1 nM–100 µM) of each inhibitor in a fluorometric assay buffer (50 mM Tris·HCl pH 7.5, 200 mM NaCl, 1 mM CaCl2, 1 µM ZnCl2, 0.05% Brij-35, and 1% DMSO). Incubation of the enzyme and inhibitor solutions occurred for 15 min at room temperature; fluorogenic substrate solution (OmniMMP® = Mca-Pro-Leu-Gly-Leu-Dpa-Ala-Arg-NH2, Enzo Life Sciences, 2.5 µM final concentration or OmniMMP®RED = TQ3-GABA-Pro-Cha-Abu-Smc-His-Ala-Dab (6′-TAMRA)-Ala-Lys-NH2, Enzo Life Sciences, and 1 µM final concentration) was subsequently added. The assay was incubated for 2–4 h at 37 °C, after which a Perkin–Elmer Victor V3 plate reader was used to measure fluorescence (λex= 340 nm, λem = 405 nm or λex = 545 nm, λem = 572 nm). Included in the assay were control wells lacking any inhibitor. MMP activity was thus determined and expressed in relative fluorescence units (RFU). Percent inhibition was calculated from control wells and IC50 values were determined using GraphPad Prism 5.0 and are shown as mean ± SEM of at least three independent measurements, which were performed in triplicate.

MMP-8 = target: T2, MMP-8 (Homo sapiens, UniProt P22894); assay: fluorometric MMP inhibition assay, MMP-8 catalytic domain; assay type: biochemical; conditions: for Ligand Efficiency MMP-8: calculated from IC50 values of Table 2; for IC50: catalytic domain, fluorometric assay, mean ± SEM of at least 3 experiments
T2 construct: Catalytic domains of MMP-2, -8, -9, and -13 were obtained from Enzo Life Sciences; purchased Enzo Life Sciences
T2 sequence (P22894 100-262 limits assumed): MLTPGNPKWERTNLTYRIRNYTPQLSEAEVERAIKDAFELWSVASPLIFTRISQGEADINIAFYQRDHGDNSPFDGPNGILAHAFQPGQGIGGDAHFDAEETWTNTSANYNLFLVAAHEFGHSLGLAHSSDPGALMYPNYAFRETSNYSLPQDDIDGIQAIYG
Method: as §1

MMP-9 = target: T3, MMP-9 (Homo sapiens, UniProt P14780); assay: fluorometric MMP inhibition assay, MMP-9 catalytic domain; assay type: biochemical; conditions: for Ligand Efficiency MMP-9: calculated from IC50 values of Table 2; for IC50: catalytic domain, fluorometric assay, mean ± SEM of at least 3 experiments
T3 construct: Catalytic domains of MMP-2, -8, -9, and -13 were obtained from Enzo Life Sciences; purchased Enzo Life Sciences
T3 sequence (P14780 107-444 limits assumed): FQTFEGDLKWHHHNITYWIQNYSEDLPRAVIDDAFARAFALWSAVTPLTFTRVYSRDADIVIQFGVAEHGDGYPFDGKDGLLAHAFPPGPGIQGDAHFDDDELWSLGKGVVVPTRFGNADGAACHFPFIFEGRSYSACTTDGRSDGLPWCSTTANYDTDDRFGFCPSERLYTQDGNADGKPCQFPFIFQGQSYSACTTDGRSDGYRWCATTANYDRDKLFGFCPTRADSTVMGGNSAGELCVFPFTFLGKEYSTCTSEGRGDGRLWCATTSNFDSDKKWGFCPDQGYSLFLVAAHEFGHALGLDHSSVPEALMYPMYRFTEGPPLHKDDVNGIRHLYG
Method: as §1

MMP-13 = target: T4, MMP-13 (Homo sapiens, UniProt P45452); assay: fluorometric MMP inhibition assay, MMP-13 catalytic domain; assay type: biochemical; conditions: for Ligand Efficiency MMP-13: calculated from IC50 values of Table 2; for IC50: catalytic domain, fluorometric assay, mean ± SEM of at least 3 experiments; for Selectivity MMP-2/13 / Selectivity MMP-8/13 / Selectivity MMP-9/13: ratio of IC50 values of Table 2
T4 construct: Catalytic domains of MMP-2, -8, -9, and -13 were obtained from Enzo Life Sciences; purchased Enzo Life Sciences
Method: as §1

Compound	Ligand Efficiency MMP-2 (MMP-2)	IC50 (MMP-2) [µM]	Ligand Efficiency MMP-8 (MMP-8)	IC50 (MMP-8) [µM]	Ligand Efficiency MMP-9 (MMP-9)	IC50 (MMP-9) [µM]	Ligand Efficiency MMP-13 (MMP-13)	IC50 (MMP-13) [µM]	Selectivity MMP-2/13 (MMP-13)	Selectivity MMP-8/13 (MMP-13)	Selectivity MMP-9/13 (MMP-13)	melting point [°C]	selectivity toward MMP-8 (MMP-2 inhibition versus MMP-8) (MMP-2)
O=C(Nc1ccccc1)Nc1ccc2nc(NC(P(=O)(O)O)P(=O)(O)O)sc2c1 [Compound 9, (6-(3-phenylureido)benzo[d]thiazol-2-amino)methyl-1,1-bisphosphonic acid]	0.26	3 ± 0.4	0.23	15 ± 5	0.23	13.6 ± 1.4	0.23	11.5 ± 1.9	0.26	1.30	1.18	> 250	
O=[N+]([O-])c1ccc2nc(NC(P(=O)(O)O)P(=O)(O)O)sc2c1 [Compound 4, (6-nitrobenzo[d]thiazol-2-amino)methyl-1,1-bisphosphonic acid]	0.33	4.5 ± 0.5	0.31	9 ± 0.4	0.32	7.7 ± 1.1	0.35	2.25 ± 0.15	2.00	4.00	3.42	> 250	
O=C(Nc1ccc2nc(NC(P(=O)(O)O)P(=O)(O)O)sc2c1)c1ccccc1 [Compound 5, (6-benzamidobenzo[d]thiazol-2-amino)methyl-1,1-bisphosphonic acid]	0.29	1.16 ± 0.18	0.25	9 ± 0.3	0.25	6.3 ± 0.9	0.30	0.67 ± 0.025	1.73	13.43	9.40	> 250	7.76
O=C(Nc1ccc2nc(NC(P(=O)(O)O)P(=O)(O)O)sc2c1)c1ccc(Br)cc1 [Compound 6, (6-(4-bromobenzamido)benzo[d]thiazol-2-amino)methyl-1,1-bisphosphonic acid]	0.22	13.8 ± 0.9	0.19	60 ± 2.6		> 100	0.24	6.7 ± 0.5	2.06	8.96	>14.92	> 250	
O=P(O)(O)C(Nc1nc2ccc(F)cc2s1)P(=O)(O)O [Compound 2, (6-fluorobenzo[d]thiazol-2-amino)methyl-1,1-bisphosphonic acid]	0.35	9 ± 0.9	0.31	32.1 ± 1.9	0.31	26.5 ± 2.7	0.37	4.25 ± 0.35	2.12	7.55	6.24	> 250	
O=P(O)(O)C(Nc1nc2ccc(Cl)cc2s1)P(=O)(O)O [Compound 3, (6-chlorobenzo[d]thiazol-2-amino)methyl-1,1-bisphosphonic acid]	0.38	2.64 ± 0.04	0.33	14.6 ± 0.2	0.32	18.7 ± 2.9	0.41	1.23 ± 0.12	2.15	11.87	15.20	> 250	
O=P(O)(O)C(CNc1nc2ccc(Cl)cc2s1)P(=O)(O)O [Compound 12, (6-chlorobenzo[d]thiazol-2-amino)ethyl-1,1-bisphosphonic acid]	0.35	4.7 ± 1.1	0.31	21.3 ± 1.7	0.29	36.6 ± 1.8	0.40	0.82 ± 0.06	5.73	25.98	44.63	> 250	
O=C(Nc1ccc2nc(NC(P(=O)(O)O)P(=O)(O)O)sc2c1)c1ccc([N+](=O)[O-])cc1 [Compound 7, (6-(4-nitrobenzamido)benzo[d]thiazol-2-amino)methyl-1,1-bisphosphonic acid]	0.27	0.98 ± 0.16	0.23	6.7 ± 0.8	0.23	5.4 ± 1.1	0.28	0.5 ± 0.01	1.96	13.40	10.80	> 250	6.84
CC(N)C(=O)Nc1ccc2nc(NC(P(=O)(O)O)P(=O)(O)O)sc2c1 (stereo not shown) [Compound 11]	0.28	9.4 ± 2	0.23	54 ± 6		> 100	0.23	61.9 ± 1.3	0.15	0.87	>1.62	> 250	
O=P(O)(O)C(Nc1nc2ccccc2s1)P(=O)(O)O [Compound 1, (Benzo[d]thiazol-2-amino)methyl-1,1-bisphosphonic acid]	0.36	12.7 ± 0.8	0.30	84.3 ± 2.1		> 100	0.38	6.5 ± 1.2	1.95	12.97	>15.4		
